The values that follow come from patent US11912705B2, “Cathinone derivatives, pharmaceutical formulations, and methods” (The Corporation of Mercer University, priority 2020, dated 2024).

Where “and” joins values, the source holds several entries; their conditions need not be identical. Identical values can stand only once. Like-named read-outs stand apart in the source and are kept apart here.

Test [1] addresses T1, human M1R (Homo sapiens, UniProt P11229).
T1 construct: host or cells: HEK293 (CRL-1573, ATCC), transient
T1 sequence (P11229 1-460): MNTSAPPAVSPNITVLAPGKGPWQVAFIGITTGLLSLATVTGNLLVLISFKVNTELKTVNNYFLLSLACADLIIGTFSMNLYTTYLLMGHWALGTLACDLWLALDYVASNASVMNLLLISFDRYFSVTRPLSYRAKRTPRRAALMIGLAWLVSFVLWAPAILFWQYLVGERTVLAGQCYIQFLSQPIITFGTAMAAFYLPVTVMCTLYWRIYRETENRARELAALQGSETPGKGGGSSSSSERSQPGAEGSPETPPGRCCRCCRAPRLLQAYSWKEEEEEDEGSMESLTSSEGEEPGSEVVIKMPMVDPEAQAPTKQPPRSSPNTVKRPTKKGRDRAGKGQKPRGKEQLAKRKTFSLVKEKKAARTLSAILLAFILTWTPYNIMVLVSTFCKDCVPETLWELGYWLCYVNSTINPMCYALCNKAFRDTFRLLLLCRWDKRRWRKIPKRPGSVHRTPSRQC
As to the kind of experiment: biochemical. It is filed as binding. As for the experimental part:
(§1) Radioligand Competition Binding: Radioligand competition binding assays were conducted using membranes collected from transiently transfected HEK293 cells (P<20 from a procured stock, CRL-1573, ATCC, Manassas, Va., USA) as previously described (Chen, Y., et al. Drug Test Anal 11, 990-998). Briefly, cells ˜90% confluent in 10 cm plates were transfected with 5 μg human M1R, M2R, M3R, M4R or […] cDNA (cDNA resource center, Bloomsburg, Pa., USA) using a lipid-based method (LipoD293 reagent, SignaGen Laboratories, Rockville, Md., USA). Membranes were collected by centrifugation about 48 hours later and stored at −80° C. until used. […] After a 90-minute incubation at room temperature on a shaker, contents from the plates were rapidly filtered through GF/B fiberglass filter mats, pre-soaked with ice cold 50 mM Tris buffer (pH 7.4), using a Microbeta Filtermat-96 cell harvester (Perkin Elmer, Waltham, Mass., USA). Approximately 200 mL of ice cold, 50 mM Tris buffer was then vacuumed through filter mats to wash away unbound radioligand. Filter mats were dried on a hot plate and soaked in Betaplate (Perkin Elmer, Waltham, Mass., USA) scintillation fluid in plastic bags. Bags were sealed and placed in cassettes. Radioactivity was measured in a Microbeta2 Microplate Counter (Perkin Elmer, Waltham, Mass., USA), and counts per minute corresponding to each well on the plates were recorded. For full dose-response competition binding assays, increasing half-log unit concentrations of five unsubstituted PSCs were tested at M2Rs and M1Rs, with the same procedures described above.
(§2) Curve Fitting and Statistical Analyses: All data were analyzed by GraphPad 8.3.0 (San Diego, Calif., USA). Ki values were determined from data fit to both one- and two-site models. […] EC50 and IC50 values from functional assays were determined from data fit to the log(agonist) vs. response (three parameters) or log(inhibitor) vs. response (three parameters) model, respectively. Kb values were calculated from IC50 values using the Cheng-Prusoff equation with modification (see, e.g., Leff, P., and Dougall, I. G. (1993) Trends Pharmacol Sci 14, 110-112): Kb=IC50/((2+([A]/[A50])nH)1/nH−1)

Test [2] deals with T2, human M3R (Homo sapiens, UniProt P20309).
T2 construct: host or cells: HEK293 (CRL-1573, ATCC), transient
T2 sequence (P20309 whole entry): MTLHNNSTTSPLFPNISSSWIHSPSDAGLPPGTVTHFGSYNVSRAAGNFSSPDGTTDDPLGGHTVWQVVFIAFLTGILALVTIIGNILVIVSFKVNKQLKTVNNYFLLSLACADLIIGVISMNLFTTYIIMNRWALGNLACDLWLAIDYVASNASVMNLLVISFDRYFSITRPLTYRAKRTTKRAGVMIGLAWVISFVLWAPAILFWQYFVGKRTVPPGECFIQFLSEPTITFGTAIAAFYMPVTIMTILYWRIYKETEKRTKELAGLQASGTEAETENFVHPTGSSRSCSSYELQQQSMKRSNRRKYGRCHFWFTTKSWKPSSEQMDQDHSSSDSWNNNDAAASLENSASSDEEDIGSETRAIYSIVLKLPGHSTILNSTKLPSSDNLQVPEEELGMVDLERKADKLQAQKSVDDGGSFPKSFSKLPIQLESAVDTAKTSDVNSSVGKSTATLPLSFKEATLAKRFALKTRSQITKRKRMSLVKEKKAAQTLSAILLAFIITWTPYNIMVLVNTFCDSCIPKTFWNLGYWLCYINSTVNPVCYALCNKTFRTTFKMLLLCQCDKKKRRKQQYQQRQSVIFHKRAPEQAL
As to the kind of experiment: biochemical. It is filed as binding. The procedure:
as §1, §2

In test [3] the target is T3, human M2R (Homo sapiens, UniProt P08172).
T3 construct: host or cells: HEK293 (CRL-1573, ATCC), transient
T3 sequence (P08172 1-466): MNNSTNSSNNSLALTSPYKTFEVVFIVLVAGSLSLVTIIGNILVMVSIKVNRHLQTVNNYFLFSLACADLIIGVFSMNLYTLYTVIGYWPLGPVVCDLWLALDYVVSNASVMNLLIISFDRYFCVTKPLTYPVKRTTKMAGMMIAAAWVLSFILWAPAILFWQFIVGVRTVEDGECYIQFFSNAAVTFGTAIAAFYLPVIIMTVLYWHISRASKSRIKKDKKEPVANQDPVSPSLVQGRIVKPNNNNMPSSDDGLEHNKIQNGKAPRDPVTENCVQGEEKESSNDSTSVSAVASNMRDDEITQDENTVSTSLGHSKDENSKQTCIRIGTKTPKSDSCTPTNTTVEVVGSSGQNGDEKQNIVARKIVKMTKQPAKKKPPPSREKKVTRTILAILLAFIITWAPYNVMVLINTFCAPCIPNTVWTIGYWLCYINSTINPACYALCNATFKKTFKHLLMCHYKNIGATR
As to the kind of experiment: [3H]Scopolamine radioligand competition binding at M2R. To be noted: for M2 Selectivity: range of Ki ratios of M1, M3, M4, M5 versus M2. The procedure:
as §1, §2
(In general: Loss of bound radioactivity is the signal in a displacement assay; it reports binding, not function.)

Test [4] addresses T4, human M4R (Homo sapiens, UniProt P08173).
T4 construct: host or cells: HEK293 (CRL-1573, ATCC), transient
T4 sequence (P08173 1-479): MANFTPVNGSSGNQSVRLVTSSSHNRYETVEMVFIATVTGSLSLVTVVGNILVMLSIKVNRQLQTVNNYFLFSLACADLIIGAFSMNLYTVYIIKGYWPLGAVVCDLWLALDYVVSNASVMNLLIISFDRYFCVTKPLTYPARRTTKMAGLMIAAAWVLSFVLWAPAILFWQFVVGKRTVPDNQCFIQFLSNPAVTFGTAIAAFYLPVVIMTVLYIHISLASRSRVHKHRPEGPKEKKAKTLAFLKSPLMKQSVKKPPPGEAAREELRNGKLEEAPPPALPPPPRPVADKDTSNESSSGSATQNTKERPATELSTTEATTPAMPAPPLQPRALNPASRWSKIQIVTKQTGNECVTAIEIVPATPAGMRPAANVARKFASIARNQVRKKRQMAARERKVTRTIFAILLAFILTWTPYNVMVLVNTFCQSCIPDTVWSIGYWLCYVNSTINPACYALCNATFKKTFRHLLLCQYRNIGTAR
As to the kind of experiment: [3H]Scopolamine radioligand competition binding at M4R. The procedure:
as §1, §2

The mark [5] stands for this setting: human muscarinic M1 (N = 6), [3H]-N-methylscopolamine, read-out: Affinities, Ki ± SEM, nM M1.
The mark [6] stands for this setting: human muscarinic M3 (N = 5), [3H]-N-methylscopolamine, read-out: Affinities, Ki ± SEM, nM M3.
The mark [7] stands for this setting: Affinities, Ki ± SEM, nM M2, human muscarinic M2 (N = 9), [3H]-N-methylscopolamine.

Consider `CCCCC(C(=O)c1ccccc1)N1CCCCC1` (stereo not drawn) [Compound (1), 1-phenyl-2-(piperidin-1-yl)hexan-1-one], for which the Ki in test [1] (setting [5]) was 1010 nM; in test [2] (setting [6]), 994 nM; in test [3] (setting [7]), 70 nM and 69.9 nM; in test [4], 1240 nM. The “M2 Selectivity” value in test [3] is 9.72-17.76.
For the compound `CCCCC(C(=O)c1ccccc1)N1CCCCCC1` (stereo not drawn) [Compound (2), 2-(azepan-1-yl)-1-phenylhexan-1-one], the Ki was 1490 nM in test [1] (setting [5]); 988 nM in test [2] (setting [6]); 90 nM and 89.5 nM in test [3] (setting [7]); 997 nM in test [4]. The “M2 Selectivity” value in test [3] is given as 11.04-16.63.
Consider `CCCCC(C(=O)c1ccccc1)N1CCCC1` (stereo not drawn) [α-PHP, 1-phenyl-2-(pyrrolidin-1-yl)hexan-1-one], for which, in test [1], the “fold increase in M1R affinity from α-PPP” value stood at 121 fold. Also, the Ki in test [1] (estimate from 1 and 10 μM concentrations (N = 2), N.C. = <5% displacement of radioligand at 10 μM, read-out: estimated pKi at M1R (converted)) was 2570 nM; in test [1] (full dose-response [3H]Scopolamine competition binding, α-PPP and α-PBP interpolated, read-out: pKi at M1R (converted)) it was 1580 nM; in test [2] (estimate from 1 and 10 μM concentrations (N = 2), N.C. = <5% displacement of radioligand at 10 μM, read-out: estimated pKi at M3R (converted)), 1660 nM; in test [3] (Ki at M2Rs, full dose-response [3H]Scopolamine competition binding), 251 nM; in test [3] (estimated pKi at M2R, estimate from 1 and 10 μM concentrations (N = 2), N.C. = <5% displacement of radioligand at 10 μM), 468 nM; in test [4], 1950 nM. The “fold increase in M2R affinity compared to α-PPP” value in test [3] was 302 fold.
